Laboratory results: US12577273B2, “Small molecule modulators of gut bacterial bile acid metabolism” (priority 2019, dated 2026)
“And” between values parts separate entries of the source, which are not always exact repeats. Equal entries are not always repeated. “Also recorded” adds a separate entry of the source. Values belong to the compound of their own block, whether it stands above or below them.

Experiments:
B. longum BSH [1] = target: T1, B. longum BSH (Bifidobacterium longum, UniProt Q9KK62); test: Inhibitor screen using rBSH, B. longum BSH (UPLC-MS % deconjugation); assay type: biochemical, Bifidobacterium longum SBT2928; parameters: His6 (C); made in house; host or cells: Escherichia coli (as for the B. theta enzyme); details: 100 μM inhibitor; for % deconjugation of TCA / % deconjugation of TDCA / % deconjugation of TUDCA / % deconjugation of TβMCA: 200 nM rBSH, bile acid pool, replicates 1-3
T1 sequence (Q9KK62 1-317): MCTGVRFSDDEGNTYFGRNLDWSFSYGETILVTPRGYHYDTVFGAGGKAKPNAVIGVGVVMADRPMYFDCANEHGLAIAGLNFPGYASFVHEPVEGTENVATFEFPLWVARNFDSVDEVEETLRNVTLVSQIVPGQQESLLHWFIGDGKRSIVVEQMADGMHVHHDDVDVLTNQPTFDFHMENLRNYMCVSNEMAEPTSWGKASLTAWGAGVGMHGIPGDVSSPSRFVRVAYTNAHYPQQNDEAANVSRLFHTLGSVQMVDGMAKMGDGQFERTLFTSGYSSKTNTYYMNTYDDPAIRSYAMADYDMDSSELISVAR
Method: B. longum rBSH. Recombinant BSH from B. longum SBT2928 was expressed and purified as above, except 0.25 mM IPTG was used for protein expression and 1 mM TCEP for protein purification.
Inhibitor Screen Using rBSHs.

[2] = tested on: BSH activity in conventional mouse feces; test: Screen of inhibitors in conventional mouse feces; assay type: biochemical; details: 20 μM inhibitor, 30 min, then GCDCA-d4 100 μM, 18 hours
Method: Screen of Inhibitors in Conventional Mouse Feces. […] The tubes were then frozen in dry ice for 5 mins and upon thawing were diluted with an equal volume of methanol. […] The supernatant was removed into a clean eppendorf tube and centrifuged again. […] The concentration of product detected from these assays was reported directly.

B. theta BSH [3] = target: T2, B. theta BSH (Bacteroides thetaiotaomicron, UniProt Q8A600); test: Inhibitor screen using rBSH, B. theta BSH (UPLC-MS % deconjugation); details: 100 μM inhibitor; for inhibition of B. theta BSH (in words): 30 min preincubation, monitored over 21 hours; for % deconjugation of TDCA / % deconjugation of TUDCA / % deconjugation of TβMCA / % deconjugation of TCA: 200 nM rBSH, replicates 1-3
B. theta cultures = test: BSH inhibition in growing B. theta cultures, single substrate (GUDCA or TUDCA); assay type: cell-based, Bacteroides thetaiotaomicron; details: 10 μM inhibitor; for BSH inhibition in B. theta cultures compared to 7 (in words): 100 μM TUDCA; for deconjugation of GUDCA in growing B. theta cultures (in words): 100 μM GUDCA
[4] = tested on: three Gram negative and three Gram positive strains of human gut bacteria; test: BSH inhibition in growing cultures of six gut bacterial strains (overall statements); assay type: cell-based; details: 100 μM inhibitor, 100 μM conjugated bile acid mixture
B. longum BSH [5] = target: T1, B. longum BSH; test: Enzyme kinetics (ninhydrin assay), B. longum BSH; details: substrate of B. longum BSH
Method: (§1) Enzyme Kinetics. […] This solution was preheated to 37° C. in a water bath. 20 μL of a conjugated bile acid in DMSO at appropriate concentration was preheated to 37° C. in a water bath and added to the above solution. […] The cloudy solution was centrifuged at 4,200 g for 15 mins. 10 μL of the supernatant was added to 190 μL of ninhydrin mix (15 mL of 1% [wt/vol] ninhydrin in 0.5 M sodium citrate at pH 5.5, 36 mL glycerol and 6 mL 0.5 M sodium citrate buffer at pH 5.5) and the mixture was heated to 100° C. in a BioRad thermocycler for 18 mins. The obtained solution was cooled at 4° C. for 20 mins and absorbance was measured at 570 nm using a spectrophotometer (Molecular Devices).

B. theta BSH [6] = target: T2, B. theta BSH; test: Enzyme kinetics (ninhydrin assay), B. theta BSH; assay type: biochemical; details: for deconjugation of substrate by purified B. theta BSH (in words): ninhydrin-based assay
Method: as §1

[7] = FIG. 2a, 2 hours, bile acid pool
[8] = FIG. 2a, 2 hours, pool of four tauro conjugated bile acids 25 μM each
[9] = FIG. 2a, 21 hours, bile acid pool
[10] = Supplementary FIG. 3a, 5 hours, bile acid pool
[11] = Table 1, substrate of B. Theta BSH, PBS pH 7.5, 37° C.
[12] = Table 3, substrate of B. theta BSH, mean ± SEM, n = 3

SMILES: C[C@H](CCN=C=S)[C@H]1CC[C@H]2[C@@H]3[C@H](O)C[C@@H]4C[C@H](O)CC[C@]4(C)[C@H]3CC[C@]12C [Compound 1]
- inhibition of B. longum BSH (in words) (B. longum BSH [1]; 2 h, 5 h and 21 h timepoints): modest inhibition
- % deconjugation of TCA (B. longum BSH [1]; FIG. 2b, 2 hours): 0.10% and 0.89% and 0.43%
- % deconjugation of TDCA (B. longum BSH [1]; FIG. 2b, 2 hours): 7.25% and 4.34% and 2.20%
- % deconjugation of TUDCA (B. longum BSH [1]; FIG. 2b, 2 hours): 2.12% and 1.09% and 0.61%
- % deconjugation of TβMCA (B. longum BSH [1]; FIG. 2b, 2 hours): 2.49% and 0.05% and 0.03%
- % deconjugation of TCA (B. longum BSH [1]; FIG. 2b, 21 hours): 9.02% and 3.00% and 8.03%
- % deconjugation of TDCA (B. longum BSH [1]; FIG. 2b, 21 hours): 23.33% and 14.91% and 20.42%
- % deconjugation of TUDCA (B. longum BSH [1]; FIG. 2b, 21 hours): 4.57% and 2.48% and 3.66%
- % deconjugation of TβMCA (B. longum BSH [1]; FIG. 2b, 21 hours): 0.21% and 0.13% and 0.28%
- % deconjugation of TCA (B. longum BSH [1]; Supplementary FIG. 3b, 5 hours): 4.13% and 4.57% and 4.31%
- % deconjugation of TDCA (B. longum BSH [1]; Supplementary FIG. 3b, 5 hours): 9.85% and 11.26% and 11.96%
- % deconjugation of TUDCA (B. longum BSH [1]; Supplementary FIG. 3b, 5 hours): 2.44% and 2.49% and 2.64%
- % deconjugation of TβMCA (B. longum BSH [1]; Supplementary FIG. 3b, 5 hours): 0.10% and 0.11% (2×)
- BSH activity in resuspended conventional mouse feces (in words) [2]: moderate BSH inhibition; also recorded: decreased deconjugation
- inhibition of B. theta BSH (in words) (B. theta BSH [3]): modest inhibition
- % deconjugation of TDCA (B. theta BSH [3]; [7]): 51.40% and 46.10% and 43.43%
- % deconjugation of TUDCA (B. theta BSH [3]; [7]): 37.96% and 35.92% and 33.34%
- % deconjugation of TβMCA (B. theta BSH [3]; [7]): 3.72% and 3.29% and 3.28%
- % deconjugation of TCA (B. theta BSH [3]; [8]): 0.12% and 0.17% and 0.29%
- % deconjugation of TCA (B. theta BSH [3]; [9]): 0.12% and 0.17% and 0.15%
- % deconjugation of TDCA (B. theta BSH [3]; [9]): 45.18% and 51.87% and 45.19%
- % deconjugation of TUDCA (B. theta BSH [3]; [9]): 34.40% and 41.24% and 37.45%
- % deconjugation of TβMCA (B. theta BSH [3]; [9]): 3.18% and 4.28% and 3.11%
- % deconjugation of TCA (B. theta BSH [3]; [10]): 0.25% and 0.00% and 0.21%
- % deconjugation of TDCA (B. theta BSH [3]; [10]): 52.56% and 51.54% and 45.63%
- % deconjugation of TUDCA (B. theta BSH [3]; [10]): 38.73% and 40.02% and 35.99%
- % deconjugation of TβMCA (B. theta BSH [3]; [10]): 4.42% and 4.47% and 3.37%

- % deconjugation of TDCA (B. theta BSH [3]; [7]): 97.26% and 96.13% and 94.56%
- % deconjugation of TUDCA (B. theta BSH [3]; [7]): 94.07% and 91.62% and 89.81%
- % deconjugation of TβMCA (B. theta BSH [3]; [7]): 32.07% and 29.34% and 22.69%
- % deconjugation of TCA (B. theta BSH [3]; [8]): 0.47% and 1.15% and 0.30%
- % deconjugation of TCA (B. theta BSH [3]; [9]): 1.50% and 0.85% and 1.80%
- % deconjugation of TDCA (B. theta BSH [3]; [9]): 95.87% and 95.61% and 96.21%
- % deconjugation of TUDCA (B. theta BSH [3]; [9]): 98.54% and 97.31% and 97.80%
- % deconjugation of TβMCA (B. theta BSH [3]; [9]): 47.65% and 32.41% and 43.47%
- % deconjugation of TCA (B. theta BSH [3]; [10]): 0.40% and 1.92% and 1.29%
- % deconjugation of TDCA (B. theta BSH [3]; [10]): 99.59% and 99.50% and 99.01%
- % deconjugation of TUDCA (B. theta BSH [3]; [10]): 98.43% and 98.54% and 97.17%
- % deconjugation of TβMCA (B. theta BSH [3]; [10]): 26.17% and 45.65% and 37.57%
SMILES: C#CC(=O)CC[C@@H](C)[C@H]1CC[C@H]2[C@@H]3[C@H](O)C[C@@H]4C[C@H](O)CC[C@]4(C)[C@H]3CC[C@]12C [Compound 4]

SMILES: CC(=O)CC[C@@H](C)[C@H]1CC[C@H]2[C@@H]3[C@H](O)C[C@@H]4C[C@H](O)CC[C@]4(C)[C@H]3CC[C@]12C [Compound 8]
- BSH inhibition in B. theta cultures compared to 7 (in words) (B. theta cultures): less potent inhibitors of B. theta BSH than compound 7; also recorded: did not display BSH inhibition against either recombinant protein or B. theta cultures
- inhibition of B. theta BSH (in words) (B. theta BSH [3]): did not display BSH inhibition; also recorded: did not display BSH inhibition against either recombinant protein or B. theta cultures

SMILES: C[C@H](CCC(=O)CF)[C@H]1CC[C@H]2[C@@H]3[C@H](O)C[C@@H]4C[C@H](O)CC[C@]4(C)[C@H]3C[C@H](O)[C@]12C [Compound 9]
- deconjugation of GUDCA in growing B. theta cultures (in words) (B. theta cultures): significantly diminished activity to inhibit B. theta BSH
- deconjugation of GUDCA in growing B. theta cultures (in words) (B. theta cultures; listed as compound 9): significant deconjugation was observed
- BSH inhibition in B. theta cultures compared to 7 (in words) (B. theta cultures): less potent inhibitors of B. theta BSH than compound 7; also recorded: significantly reduced ability to inhibit BSH deconjugation

SMILES: Cc1cc2nc3c(=O)[nH]c(=O)nc-3n(C[C@H](O)[C@H](O)[C@H](O)CO)c2cc1C [Riboflavin, riboflavin, reference compound]
- deconjugation / BSH inhibition in cultures of the six bacterial strains (in words) [4]: neither riboflavin nor CAPE displayed significant inhibitory activity against any of the Gram negative strains
- inhibition of B. theta BSH (in words) (B. theta BSH [3]): did not display any inhibitory activity

SMILES: C[C@H](CCC(=O)NCCS(=O)(=O)O)[C@H]1CC[C@H]2[C@@H]3[C@H](O)C[C@@H]4C[C@H](O)CC[C@]4(C)[C@H]3C[C@H](O)[C@]12C [TCA, taurocholic acid]
- Kcat (B. longum BSH [5]; Table 1, PBS pH 7.5, 37° C.): 1.82 s⁻¹
- deconjugation of substrate by purified B. theta BSH (in words) (B. theta BSH [6]): did not deconjugate

SMILES: C[C@H](CCC(=O)NCCS(=O)(=O)O)[C@H]1CC[C@H]2[C@@H]3[C@H](O)C[C@@H]4C[C@H](O)CC[C@]4(C)[C@H]3CC[C@]12C [TCDCA, taurochenodeoxycholic acid]
- Kcat (B. longum BSH [5]; Table 1, PBS pH 7.5, 37° C.): 1.807 s⁻¹
- Km (B. longum BSH [5]; Table 1, PBS pH 7.5, 37° C.): 7.75 mM
- Kcat (B. longum BSH [5]; Table 3, mean ± SEM, n = 3): 0.0767 ± 0.01 s⁻¹
- Km (B. longum BSH [5]; Table 3, mean ± SEM, n = 3): 7 ± 2.3 mM
- Kcat (B. theta BSH [6]; [11]): 1.69 s⁻¹
- Km (B. theta BSH [6]; [11]): 2.86 mM
- Kcat (B. theta BSH [6]; [12]): 0.0717 ± 0.01 s⁻¹
- Km (B. theta BSH [6]; [12]): 2.9 ± 1.8 mM

SMILES: C[C@H](CCC(=O)NCCS(=O)(=O)O)[C@H]1CC[C@H]2[C@@H]3CC[C@@H]4C[C@H](O)CC[C@]4(C)[C@H]3C[C@H](O)[C@]12C [TDCA, taurodeoxycholic acid]
- Kcat (B. longum BSH [5]; Table 1, PBS pH 7.5, 37° C.): 1.695 s⁻¹
- Kcat (B. longum BSH [5]; Table 3, mean ± SEM, n = 3): 0.0583 ± 0.0017 s⁻¹
- Kcat (B. theta BSH [6]; [11]): 1.682 s⁻¹
- Km (B. theta BSH [6]; [11]): 3.35 mM
- Kcat (B. theta BSH [6]; [12]): 0.215 ± 0.01 s⁻¹
- Km (B. theta BSH [6]; [12]): 3.4 ± 0.6 mM
- deconjugation of substrate by purified B. theta BSH (in words) (B. theta BSH [6]): preference for TDCA deconjugation

SMILES: C[C@H](CCC(=O)NCCS(=O)(=O)O)[C@H]1CC[C@H]2[C@@H]3[C@@H](O)C[C@@H]4C[C@H](O)CC[C@]4(C)[C@H]3CC[C@]12C [TUDCA, tauroursodeoxycholic acid]
- Kcat (B. longum BSH [5]; Table 1, PBS pH 7.5, 37° C.): 1.608 s⁻¹
- Kcat (B. longum BSH [5]; Table 3, mean ± SEM, n = 3): 0.015 ± 0.0033 s⁻¹
- Kcat (B. theta BSH [6]; [11]): 1.807 s⁻¹
- Km (B. theta BSH [6]; [11]): 8.23 mM
- Kcat (B. theta BSH [6]; [12]): 0.255 ± 0.013 s⁻¹
- Km (B. theta BSH [6]; [12]): 8.2 ± 1 mM
- deconjugation of substrate by purified B. theta BSH (in words) (B. theta BSH [6]): displayed a preference
